Measurements from patent US20100036088A1, “Selective poly-N-substituted glycine antibiotics” (priority 2008, published 2010).
Square brackets hold non-standard residues; d marks the D form. Peptide text beside a SMILES is read from it. Nspe = C[C@H](NCC(=O)O)c1ccccc1; Nlys = NCCCCNCC(=O)O

Columns and labels:
[1] = test system: B. subtilis BR151; format: cell-based; settings: Table 1
From the text: (§1) An initial set of 15 ampetoid analogs was synthesized to determine whether peptoids are affected by structural and sequence modifications in a manner consistent with AMP activities. The designs for ampetoids in this library were derived from two antibacterial and selective amphipathic dodecamers, 1 and 2. Peptoid 1 [H-(Nlys-Nspe-Nspe)4—NH2] is composed of 2/3 Nspe, the peptoid analog of phenylalanine, and 1/3 Nlys, the peptoid analog of lysine (see FIG. 1 for the structures of representative peptoid monomers and corresponding N-substituents). Peptoid 2 [H-(Nlys-Nssb-Nspe)4—NH2] contains 1/3 isoleucine-like Nssb monomers in place of Nspe. The variant sequences were designed to effect changes in chirality, length, hydrophobicity, charge, and amphipathicity. All of these compounds were tested for antibacterial activity against representative BSL1 Gram-negative (E. coli JM109) and Gram-positive (B. subtilis BR151) bacterial strains. As an initial measure of selectivity, the lytic activity of the peptoids was determined against human erythrocytes. Table 1 summarizes the sequences synthesized, the solvent composition at RP-HPLC elution as a relative measure of molecular hydrophobicity, and antibacterial and hemolytic activities.
(§2) Antibacterial assays. MICs were determined according to CLSI M7-A6 protocols in a 96-well microtiter plate. In test wells, 50 μL bacterial inoculum (5×10^5 CFU/ml) in Mueller-Hinton broth (MHB) was added to 50 μL peptoid solution in MHB (prepared by 1:2 serial dilutions). Positive controls contained 50 μL inoculum and 50 μL MHB without peptoid. […] MIC values reported were reproducible between three independent experimental replicates, each consisting of two parallel trials. Broad-spectrum antimicrobial susceptibility testing was performed against BSL2 pathogens by Nova Biologicals, Inc. (Conroe, Tex.).

[2] = test system: E. coli JM109; format: cell-based
From the text: as §1, §2

[3] = test system: B. subtilis; format: cell-based; settings: Table 2; cation-adjusted broth
Method: as §2
(§3) Screening antibacterial assays. MICs were determined in 96-well microtiter plates in accordance with CLSI M7-A6 protocols. Peptoid solutions with 50 μL total volume were prepared using 2:1 serial dilutions. 50 μL of bacteria inoculum (1×10^6 CFU/mL) prepared in cation-adjusted Mueller-Hinton broth (CAMHB) was added to test wells. Control wells contained 100 μL MHB (no growth) or 50 μL inoculums with 50 μL MHB with no peptoid. […] Reported values were reproducible over three experiments, each containing two parallel trials.

[4] = test system: E. coli; format: cell-based; settings: Table 2; cation-adjusted broth
Method: as §2, §3

[5] = test system: Candida albicans (SC5314); format: cell-based, C. albicans; settings: Table 2
Method: Additionally, in order to characterize possible antifungal activity, a library of alkylated compounds was tested against C. albicans, a representative fungal strain.
Antifungal Assays. MICs were determined using the broth microdilution assay given by CLSI M27-A2 protocols. Candida albicans (SC5314) was grown on Sabouraud dextrose agar for 24 hours at 30° C. Cells were suspended in 0.145 M saline, and the cell concentration was adjusted to 3×10^6 cells/mL. After adjusting the cell concentration, the suspension was diluted 1:1000 with RPMI 1640 (with L-glutamine and without sodium bicarbonate, Invitrogen) buffered with 0.145 M 3-(N-morpholino) propanesulfonic acid (MOPS). Two-fold serial dilutions of peptoids, peptides, and amphotericin B (Calbiochem) were prepared in RPMI 1640 and mixed with an equal volume of the cell suspension in 96-well plates. The final testing concentrations for the peptoids and peptides were 0.20 to 100 μM, and concentrations for amphotericin B were 0.031 to 16 μM. Growth controls and sterility controls were also included. Plates were incubated for 48 hours at 35° C., and growth of C. albicans was inspected visually to determine the MICs. The MIC for each compound was defined as the lowest concentration with no visible fungal growth. Experiments were performed in duplicate on two separate days.

[6] = test system: both strains of E. faecalis; format: cell-based; settings: range over strains
Method: The activities of ampetoids tested against BSL2 Gram-positive strains, however, compared very favorably to those of pexiganan.
Broad-spectrum antibacterial assays. MICs of compounds were determined by microdilution procedure in Mueller-Hinton broth (MHB) in accordance with CLSI M7-A6 protocols in a manner similar to that described for the screen antibacterial assays. Inoculated microtiter plates were incubated at 35° C. for 24 hours prior to the result being recorded. Four ATCC strains that were used as standards are recommended by CLSI: Pseudomonas aeruginosa ATCC 27853, Escherichia coli ATCC 25922, Staphylococcus aureus ATCC 29213 and Enterococcus faecalis ATCC 29212. Other strains from the ATCC collection include Proteus vulgaris ATCC 49132, Proteus mirabilis ATCC 35659, Klebsiella pneumoniae ATCC 33495, Enterobacter aerogenes ATCC 35029 and Serratia marcescens ATCC 13880. S. aureus NRS100 (COL) is a well characterized methicillian-resistant S. aureus (MRSA) strain. The strains S. aureus VAN1 and S. aureus VAN2, vancomycin-resistant MRSA strains that were isolated in Michigan and Pennsylvania, were the first vancomycin-resistant strains clinically isolated. S. aureus NRS119 and S. aureus NRS120 are linezolid-resistant isolates from the Network on Antimicrobial Resistance in S. aureus (NARSA) collection. E. faecalis 99 and E. faecium 106 are vancomycin-resistant enterococcal strains.

[7] = test system: Staphyloccus aureus (ATCC #25923); experiment: Murine intraperitoneal infection model; format: in vivo; settings: mouse, 4 mg/kg I.P.; eleven mice treated with 1-Nhis6,12
Method: Using a murine peritoneal injection mouse model, the ability of peptoids to treat infection was evaluated in vivo. The results from three separate studies of peptoid 1 and two of peptoid 1-Nhis6,12 against saline treated controls are shown in FIG. 7. The horizontal line represents the geometric mean of each population.
Murine intraperitoneal infection model. Bacteria was prepared by inoculating 5 mL of MHB with a single colony of Staphyloccus aureus (ATCC #25923) from a freshly streaked plate and grown overnight at 37 C. The following morning, the bacteria was subcultured by diluting 1/3 in MHB and grown for approximately 1.5 hours. The bacteria were then diluted 10-fold in a 5% mucin in PBS solution and thoroughly mixed. A sample was reserved to later determine the amount of bacteria the mice received.
Mice were weighed, marked, and injected I.P. with 200 uL of S. aureus inoculum. Four hours post infection, mice were treated I.P. with 4 mg/kg peptoid (˜100 ug per mouse). The infection is allowed to proceed overnight. Mice were euthanized by CO2 asphyxiation after 24 hours, and the peritoneal cavity was exposed and lavaged with 5 mL PBS. The lavage was mixed and reserved on ice until plating. […] Colonies were counted the following day, and the CFU/ml of each sample was calculated. […]

Row | Structure (SMILES) | B. subtilis MIC [1] [µM] | E. coli MIC ([2]; Table 1, E. coli JM109) [µM] | B. subtilis MIC [3] [µM] | E. coli MIC [4] [µM] | C. albicans MIC [5] [µM] | MIC against both strains of E. faecalis [6] [µg/mL] | mice that died prematurely during the exposure period [7] | MICs ([2]; JM109) [µM]
1 | C[C@@H](c1ccccc1)N(CC(N)=O)C(=O)CN(C(=O)CN(CCCCN)C(=O)CN(C(=O)CN(C(=O)CN(CCCCN)C(=O)CN(C(=O)CN(C(=O)CN(CCCCN)C(=O)CN(C(=O)CN(C(=O)CNCCCCN)[C@@H](C)c1ccccc1)[C@@H](C)c1ccccc1)[C@@H](C)c1ccccc1)[C@@H](C)c1ccccc1)[C@@H](C)c1ccccc1)[C@@H](C)c1ccccc1)[C@@H](C)c1ccccc1 [compound 1, H-(NLys-Nspe-Nspe)4-NH2] (H-[Nlys][Nspe][Nspe][Nlys][Nspe][Nspe][Nlys][Nspe][Nspe][Nlys][Nspe][Nspe]-NH2) | 0.88 | 3.5 | 1.6 | 6.3 | 6.3 | 4 to 8 | no mice | 
2 | C[C@@H](c1ccccc1)N(CC(N)=O)C(=O)CN(C(=O)CN(CCCCN)C(=O)CN(C(=O)CN(C(=O)CN(CCCCN)C(=O)[C@@H]1CCCN1C(=O)CN(C(=O)CN(CCCCN)C(=O)CN(C(=O)CN(C(=O)CNCCCCN)[C@@H](C)c1ccccc1)[C@@H](C)c1ccccc1)[C@@H](C)c1ccccc1)[C@@H](C)c1ccccc1)[C@@H](C)c1ccccc1)[C@@H](C)c1ccccc1 [1-Pro6, H-Nlys-Nspe-Nspe-Nlys-Nspe-L-Pro-(Nlys-Nspe-Nspe)2-NH2] (H-[Nlys][Nspe][Nspe][Nlys][Nspe]P[Nlys][Nspe][Nspe][Nlys][Nspe][Nspe]-NH2) |  |  |  |  |  |  |  | < 7
